Test results published in ChEMBL document CHEMBL5608234, “Heat Shock Protein 90 Interactome-Mediated Proteolysis Targeting Chimera (HIM-PROTAC) Degrading Glutathione Peroxidase 4 to Trigger Ferroptosis” (J Med Chem, 2024).
Activity calls are given as the source filed them. No cut-off for these calls is given here.

Assays:
HT-1080 [1] = experiment: HIM-PROTAC activity at GPX4/HSP90/E3 ligase in human HT-1080 cells assessed as reduction in GPX4 level at 0.1 to 3 uM incubated for 24 hrs by Western blotting analysis; type: cell-based; conditions: dose 0.1-3 µM
HT-1080 [2] = experiment: Cytotoxicity against human HT-1080 cells incubated for 48 hrs by CCK-8 assay; type: functional, cell-based; conditions: HT-1080, 48 h
HT-1080 [3] = experiment: HIM-PROTAC activity at GPX4/HSP90/E3 ligase in human HT-1080 cells assessed as reduction in GPX4 level at 1 uM incubated for 24 hrs by Western blotting analysis; type: cell-based
HT-1080 [4] = experiment: HIM-PROTAC activity at GPX4/HSP90/E3 ligase in human HT-1080 cells assessed as reduction in GPX4 level at 1 uM incubated for 24 hrs in presence of 2-chloro-N-(3-chloro-4-methoxyphenyl)-N-(2-oxo-2-(phenethylamino)-1-(thiophen-2-yl)ethyl)acetamide by Western blotting analysis; type: cell-based
[5] = Toxicity in BALB/c mouse xenografted with human HT-1080 cells assessed as animal death at 25 mg/kg, ip administered once daily measured after 10 days in presence of 2-chloro-N-(3-chloro-4-methoxyphenyl)-N-(2-oxo-2-(phenethylamino)-1-(thiophen-2-yl)ethyl)acetamide; type: organism-based; conditions: in vivo, 240 h, time 10 day
HT-1080 [6] = experiment: HIM-PROTAC activity at GPX4/HSP90/E3 ligase in human HT-1080 cells assessed as reduction in GPX4 level at 0.3 uM incubated for 24 hrs by Western blotting analysis relative to control; type: cell-based; design: scale not given: the % may be the effect or the level left
HT-1080 [7] = experiment: HIM-PROTAC activity at GPX4/HSP90/E3 ligase in human HT-1080 cells assessed as reduction in GPX4 level at 1 uM incubated for 24 hrs in presence of 6-chloro-9-((4-methoxy-3,5-dimethylpyridin-2-yl)methyl)-9H-purin-2-amine by Western blotting analysis; type: cell-based
HT-1080 [8] = experiment: Cytotoxicity against human HT-1080 cells incubated for 48 hrs in presence of Fer-1 by CCK-8 assay; type: functional, cell-based; conditions: HT-1080, 48 h
HT-1080 [9] = experiment: Induction of ferroptosis in human HT-1080 cells assessed as fold increase in cytotoxic IC50 incubated for 48 hrs in presence of Fer-1 by CCK-8 assay; type: functional
[10] = Toxicity in BALB/c mouse xenografted with human HT-1080 cells assessed as animal death at 25 mg/kg, ip administered once daily measured after 10 days in presence of 6-chloro-9-((4-methoxy-3,5-dimethylpyridin-2-yl)methyl)-9H-purin-2-amine; type: organism-based; conditions: in vivo, 240 h, time 10 day

Nc1ncnc2c1nc(Sc1cc3c(cc1I)OCO3)n2CCNC(=O)Cn1cc(COc2ccc(N(C(=O)CCl)C(C(=O)NCCc3ccccc3)c3cccs3)cc2Cl)nn1 (centres undefined)
Activity (HT-1080 [1]): Active | IC50 (HT-1080 [2]): 900 nM

COc1c(C)cnc(Cn2cnc3c(NCCCCNC(=O)Cn4cc(COc5ccc(N(C(=O)CCl)C(C(=O)NCCc6ccccc6)c6cccs6)cc5Cl)nn4)nc(N)nc32)c1C (centres undefined)
Activity (HT-1080 [1]): Active | IC50 (HT-1080 [2]): 1100 nM

COc1c(C)cnc(Cn2cnc3c(N4CCN(C(=O)Cn5cc(COc6ccc(N(C(=O)CCl)C(C(=O)NCCc7ccccc7)c7cccs7)cc6Cl)nn5)CC4)nc(N)nc32)c1C (centres undefined)
Activity (HT-1080 [1]): Active | IC50 (HT-1080 [2]): 4100 nM

O=C1CCC(N2C(=O)c3cccc(NCCOCCOCCOCCn4cc(COc5ccc(N(C(=O)CCl)C(C(=O)NCCc6ccccc6)c6cccs6)cc5Cl)nn4)c3C2=O)C(=O)N1 (centres undefined)
Activity (HT-1080 [3]): Active | IC50 (HT-1080 [2]): 490 nM

COc1c(C)cnc(Cn2cnc3c(NCCOCCOCCNC(=O)Cn4cc(COc5ccc(N(C(=O)CCl)C(C(=O)NCCc6ccccc6)c6cccs6)cc5Cl)nn4)nc(N)nc32)c1C (centres undefined)
Activity (HT-1080 [1]): Active | IC50 (HT-1080 [2]): 2600 nM

COc1c(C)cnc(Cn2cnc3c(N4CCC(NC(=O)Cn5cc(COc6ccc(N(C(=O)CCl)C(C(=O)NCCc7ccccc7)c7cccs7)cc6Cl)nn5)CC4)nc(N)nc32)c1C (centres undefined)
Activity (HT-1080 [1]): Active | IC50 (HT-1080 [2]): 2400 nM

COc1c(C)cnc(Cn2cnc3c(NCCOCCOCCOCCOCCOCCn4cc(COc5ccc(N(C(=O)CCl)C(C(=O)NCCc6ccccc6)c6cccs6)cc5Cl)nn4)nc(N)nc32)c1C (centres undefined)
Activity (HT-1080 [1]): Active | IC50 (HT-1080 [2]): 3500 nM

COc1c(C)cnc(Cn2cnc3c(NCCOCCNC(=O)Cn4cc(COc5ccc(N(C(=O)CCl)C(C(=O)NCCc6ccccc6)c6cccs6)cc5Cl)nn4)nc(N)nc32)c1C (centres undefined)
Activity (HT-1080 [1]): Active | IC50 (HT-1080 [2]): 2400 nM

COc1c(C)cnc(Cn2cnc3c(N4CCC(C5CCN(C(=O)Cn6cc(COc7ccc(N(C(=O)CCl)C(C(=O)NCCc8ccccc8)c8cccs8)cc7Cl)nn6)CC5)CC4)nc(N)nc32)c1C (centres undefined)
Activity (HT-1080 [1]): Active | IC50 (HT-1080 [2]): 980 nM

COc1c(C)cnc(Cn2cnc3c(N4CCC(N5CCN(C(=O)Cn6cc(COc7ccc(N(C(=O)CCl)C(C(=O)NCCc8ccccc8)c8cccs8)cc7Cl)nn6)CC5)CC4)nc(N)nc32)c1C (centres undefined)
Activity (HT-1080 [1]): Active | IC50 (HT-1080 [2]): 1400 nM

COc1c(C)cnc(Cn2cnc3c(NCCC4CCN(C(=O)Cn5cc(COc6ccc(N(C(=O)CCl)C(C(=O)NCCc7ccccc7)c7cccs7)cc6Cl)nn5)CC4)nc(NC(C)=O)nc32)c1C (centres undefined)
Activity (HT-1080 [1]): Active | IC50 (HT-1080 [2]): 15500 nM

COc1c(C)cnc(Cn2cnc3c(Cl)nc(N)nc32)c1C [BIIB021]
Activity (HT-1080 [3]): inactive | Activity (HT-1080 [4]): inactive | IC50 (HT-1080 [2]): 16200 nM | Activity [5]: Toxic

Nc1ncnc2c1nc(Sc1cc3c(cc1I)OCO3)n2CCOCCOCCNC(=O)Cn1cc(COc2ccc(N(C(=O)CCl)C(C(=O)NCCc3ccccc3)c3cccs3)cc2Cl)nn1 (centres undefined)
Activity (HT-1080 [1]): Active | IC50 (HT-1080 [2]): 1500 nM

COc1c(C)cnc(Cn2cnc3c(NCCOCCOCCn4cc(COc5ccc(N(C(=O)CCl)C(C(=O)NCCc6ccccc6)c6cccs6)cc5Cl)nn4)nc(N)nc32)c1C (centres undefined)
Activity (HT-1080 [1]): Active | IC50 (HT-1080 [2]): 1000 nM

NCCC1CCN(C(=O)Cn2cc(COc3ccc(N(C(=O)CCl)C(C(=O)NCCc4ccccc4)c4cccs4)cc3Cl)nn2)CC1 (centres undefined)
Activity (HT-1080 [1]): Active | IC50 (HT-1080 [2]): 8300 nM

Nc1ncnc2c1nc(Sc1cc3c(cc1I)OCO3)n2CCCCCNC(=O)Cn1cc(COc2ccc(N(C(=O)CCl)C(C(=O)NCCc3ccccc3)c3cccs3)cc2Cl)nn1 (centres undefined)
Activity (HT-1080 [1]): Active | Activity (HT-1080 [6]): < 50% | IC50 (HT-1080 [2]): 1300 nM

Nc1ncnc2c1nc(Sc1cc3c(cc1I)OCO3)n2CCNC(=O)CCNC(=O)Cn1cc(COc2ccc(N(C(=O)CCl)C(C(=O)NCCc3ccccc3)c3cccs3)cc2Cl)nn1 (centres undefined)
Activity (HT-1080 [1]): Active | IC50 (HT-1080 [2]): 56100 nM

COc1c(C)cnc(Cn2cnc3c(NCCOCCOCCOCCOCCNC(=O)Cn4cc(COc5ccc(N(C(=O)CCl)C(C(=O)NCCc6ccccc6)c6cccs6)cc5Cl)nn4)nc(N)nc32)c1C (centres undefined)
Activity (HT-1080 [1]): Active | IC50 (HT-1080 [2]): 15200 nM

Nc1ncnc2c1nc(Sc1cc3c(cc1I)OCO3)n2CCNC(=O)CCCCCNC(=O)Cn1cc(COc2ccc(N(C(=O)CCl)C(C(=O)NCCc3ccccc3)c3cccs3)cc2Cl)nn1 (centres undefined)
Activity (HT-1080 [1]): Active | IC50 (HT-1080 [2]): 41500 nM

COc1c(C)cnc(Cn2cnc3c(NCCOCCOCCOCCNC(=O)Cn4cc(COc5ccc(N(C(=O)CCl)C(C(=O)NCCc6ccccc6)c6cccs6)cc5Cl)nn4)nc(N)nc32)c1C (centres undefined)
Activity (HT-1080 [1]): Active | IC50 (HT-1080 [2]): 3200 nM

COc1ccc(N(C(=O)CCl)C(C(=O)NCCc2ccccc2)c2cccs2)cc1Cl (centres undefined)
Activity (HT-1080 [3]): inactive | Activity (HT-1080 [7]): inactive | IC50 (HT-1080 [2]): 760 nM | IC50 (HT-1080 [8]): 2000 nM | fold change (FC) (HT-1080 [9]): 3 | Activity [10]: Toxic
